Data published in ChEMBL document CHEMBL6120978, “Anticancer activity of salinomycin quaternary phosphonium salts” (Eur J Med Chem, 2025).
Activity calls are given as the source filed them. The rule behind the calls is not given here.

Legend:
[1] = system: Escherichia coli; assay: Antimicrobial activity against Escherichia coli ATCC 25922 incubated for 18 hrs by twofold microdilution method; format: functional
[2] = system: Mitochondrial membrane; assay: Induction of mitochondrial membrane potential loss in human A549 cells assessed as green fluorescence at IC50 incubated for 48 hrs MitoTracker Green FM staining based flow cytometry analysis (reference value: 8.93 %); format: cell membranes
[3] = system: A549; assay: Effect on mitochondrial function in human A549 cells assessed as fold increase in mean fluorescence intensity at IC50 incubated for 48 hrs by MitoTracker Red CMXRos staining based flow cytometry analysis relative to control; format: functional
[4] = system: Mitochondrial membrane; assay: Induction of mitochondrial membrane potential loss in human MDA-MB-231 cells assessed as red fluorescence at IC50 incubated for 48 hrs MitoTrackerRed CMXRos staining based flow cytometry analysis (reference value: 91.1 %); format: cell membranes
[5] = Selectivity index, ratio of IC50 for cytotoxicity against chinese hamster V79 cells to IC50 for cytotoxicity against human PC-3 cells; format: toxicity, cell-based; conditions: V79 cells versus PC-3 cells, read-out: Ratio IC50
[6] = system: MDA-MB-231; assay: Induction of apoptosis in human MDA-MB-231 cells assessed as early apoptotic cells at IC50 incubated for 72 hrs by Annexin V-FITC staining based flow cytometry analysis (reference value: 4.23 %); format: functional
[7] = Selectivity index, ratio of IC50 for cytotoxicity against chinese hamster V79 cells to IC50 for cytotoxicity against human SW480 cells; format: toxicity, cell-based; conditions: V79 cells versus SW480 cells, read-out: Ratio IC50
[8] = system: MDA-MB-231; assay: Effect on mitochondrial function in human MDA-MB-231 cells assessed as increase in MTRed CMXRos positive cells at IC50 incubated for 48 hrs by MitoTracker Red CMXRos staining based flow cytometry analysis relative to control; format: functional
[9] = system: A549; assay: Induction of apoptosis in human A549 cells assessed as necrotic cells at IC50 incubated for 72 hrs by Annexin V-FITC staining based flow cytometry analysis (reference value: 0.97 %); format: functional
[10] = system: A549; assay: Cytotoxicity against human A549 cells incubated for 72 hrs by MTT assay; format: functional, cell-based; conditions: A549, 72 h
[11] = system: A549; assay: Induction of ROS generation of human A549 cells assessed as fold increase at IC50 incubated for 6 hrs by CellROX Green staining based spectrofluorometer analysis relative to control; format: functional
[12] = system: MDA-MB-231; assay: Induction of apoptosis in human MDA-MB-231 cells assessed as viable cells at IC50 incubated for 72 hrs by Annexin V-FITC staining based flow cytometry analysis (reference value: 91.53 %); format: functional
[13] = system: A549; assay: Induction of apoptosis in human A549 cells assessed as early apoptotic cells at IC50 incubated for 72 hrs by Annexin V-FITC staining based flow cytometry analysis (reference value: 1.68 %); format: functional
[14] = system: Mitochondrial membrane; assay: Induction of mitochondrial membrane potential loss in human MDA-MB-231 cells assessed as green fluorescence at IC50 incubated for 48 hrs MitoTracker Green FM staining based flow cytometry analysis (reference value: 8.86 %); format: cell membranes
[15] = system: MDA-MB-231; assay: Induction of cell cycle arrest in human […] cells assessed as accumulation of cells at G2 phase at IC50 incubated for 24 hrs by propidium iodide staining based flow cytometry analysis; format: functional
[16] = system: A549; assay: Induction of apoptosis in human A549 cells assessed as late apoptotic cells at IC50 incubated for 72 hrs by Annexin V-FITC staining based flow cytometry analysis (reference value: 1.86 %); format: functional
[17] = Cytotoxicity against human HaCaT cells incubated for 72 hrs by MTT assay; format: toxicity, cell-based
[18] = Cytotoxicity against chinese hamster V79 cells incubated for 72 hrs by MTT assay; format: toxicity, cell-based, Cricetulus griseus
[19] = Selectivity index, ratio of IC50 for cytotoxicity against human HaCaT cells to IC50 for cytotoxicity against human MDA-MB-231 cells; format: toxicity, cell-based; conditions: HaCaT cells versus MDA-MB-231 cells, read-out: Ratio IC50
[20] = Selectivity index, ratio of IC50 for cytotoxicity against chinese hamster V79 cells to IC50 for cytotoxicity against human SW620 cells; format: toxicity, cell-based; conditions: V79 cells versus SW620 cells, read-out: Ratio IC50
[21] = system: Staphylococcus aureus; assay: Antimicrobial activity against Staphylococcus aureus ATCC 29213 incubated for 18 hrs by twofold microdilution method; format: functional
[22] = system: Staphylococcus aureus; assay: Antimicrobial activity against Staphylococcus aureus ATCC 25923 incubated for 18 hrs by twofold microdilution method; format: functional
[23] = Selectivity index, ratio of IC50 for cytotoxicity against chinese hamster V79 cells to IC50 for cytotoxicity against human MDA-MB-231 cells; format: toxicity, cell-based; conditions: V79 cells versus MDA-MB-231 cells, read-out: Ratio IC50
[24] = system: A549; assay: Induction of apoptosis in human A549 cells assessed as viable cells at IC50 incubated for 72 hrs by Annexin V-FITC staining based flow cytometry analysis (reference value: 95.49 %); format: functional
[25] = system: A549; assay: Induction of cell cycle arrest in human A549 cells assessed as accumulation of cells at SubG1 phase at IC50 incubated for 24 hrs by propidium iodide staining based flow cytometry analysis (reference value: 0.71 %); format: functional
[26] = system: PC-3; assay: Cytotoxicity against human PC-3 cells incubated for 72 hrs by MTT assay; format: functional, cell-based; conditions: PC-3, 72 h
[27] = system: Staphylococcus epidermidis; assay: Antimicrobial activity against Staphylococcus epidermidis ATCC 35984 incubated for 18 hrs by twofold microdilution method; format: functional
[28] = system: A549; assay: Effect on mitochondrial mass in human A549 cells assessed as increase in MTGreen positive cells at IC50 incubated for 48 hrs by MitoTracker Green FM staining based flow cytometry analysis relative to control; format: functional
[29] = Selectivity index, ratio of IC50 for cytotoxicity against human HaCaT cells to IC50 for cytotoxicity against human PC-3 cells; format: toxicity, cell-based; conditions: HaCaT cells versus PC-3 cells, read-out: Ratio IC50
[30] = system: MDA-MB-231; assay: Induction of apoptosis in human MDA-MB-231 cells assessed as necrotic cells at IC50 incubated for 72 hrs by Annexin V-FITC staining based flow cytometry analysis (reference value: 1.17 %); format: functional
[31] = Selectivity index, ratio of IC50 for cytotoxicity against human HaCaT cells to IC50 for cytotoxicity against human SW480 cells; format: toxicity, cell-based; conditions: HaCaT cells versus SW480 cells, read-out: Ratio IC50
[32] = system: A549; assay: Induction of cell cycle arrest in human A549 cells assessed as accumulation of cells at G0/G1 phase at IC50 incubated for 24 hrs by propidium iodide staining based flow cytometry analysis (reference value: 54.3 %); format: functional
[33] = Selectivity index, ratio of IC50 for cytotoxicity against human HaCaT cells to IC50 for cytotoxicity against human A549 cells; format: toxicity, cell-based; conditions: HaCaT cells versus A549 cells, read-out: Ratio IC50
[34] = system: MDA-MB-231; assay: Cytotoxicity against human MDA-MB-231 cells incubated for 72 hrs by MTT assay; format: functional, cell-based; conditions: MDA-MB-231, 72 h
[35] = system: Staphylococcus aureus; assay: Antimicrobial activity against Staphylococcus aureus ATCC 6538 incubated for 18 hrs by twofold microdilution method; format: functional
[36] = system: MDA-MB-231; assay: Effect on mitochondrial mass in human MDA-MB-231 cells assessed as increase in MTGreen positive cells at IC50 incubated for 48 hrs by MitoTracker Green FM staining based flow cytometry analysis relative to control; format: functional

| Structure (SMILES) | MIC [1] [µg/mL] | Activity [2] [%] | fold change (FC) [3] | Activity [4] [%] | selectivity ratio [5] | Activity [6] [%] | selectivity ratio [7] | Activity [8] [%] | Activity [9] [%] | IC50 [10] [nM] | fold change (FC) [11] | Activity [12] [%] | Activity [13] [%] | Activity [14] [%] | Activity [15] | Activity [16] [%] | IC50 at 72 h [17] [nM] | IC50 at 72 h [18] [nM] | selectivity ratio [19] | selectivity ratio [20] | also measured |
| --- | --- | --- | --- | --- | --- | --- | --- | --- | --- | --- | --- | --- | --- | --- | --- | --- | --- | --- | --- | --- | --- |
| CC[C@@H](C(=O)[C@@H](C)[C@@H](O)[C@H](C)[C@@H]1O[C@@H]([C@@H](CC)C(=O)OCCCC[P+](c2ccccc2)(c2ccccc2)c2ccccc2)CC[C@@H]1C)[C@H]1O[C@]2(C=C[C@@H](O)[C@]3(CC[C@@](C)([C@H]4CC[C@](O)(CC)[C@H](C)O4)O3)O2)[C@H](C)C[C@@H]1C.[Br-] | 256 | 41.7 | 3 | 39.1 | 0.1 | 27.96 | 0.3 | 50 | 2.13 | 670 | 2 | 51.49 | 59.17 | 60.8 | inactive | 3.9 | 1230 | 130 | 1.7 | 0.9 | MIC [21]: 1 µg/mL; MIC [22]: 2 µg/mL; selectivity ratio [23]: 0.2; Activity [24]: 31.8%; Activity [25]: 6%; IC50 [26]: 1350 nM; MIC [27]: 1 µg/mL; Activity [28]: 70%; selectivity ratio [29]: 0.9; Activity [30]: 5.23%; selectivity ratio [31]: 3.2; Activity [32]: 68.5%; selectivity ratio [33]: 1.8; IC50 [34]: 740 nM; MIC [35]: 1 µg/mL; Activity [36]: 90% |
| CCCC[P+](CCCC)(CCCC)CCCCOC(=O)[C@H](CC)[C@H]1CC[C@H](C)[C@H]([C@@H](C)[C@H](O)[C@H](C)C(=O)[C@H](CC)[C@H]2O[C@]3(C=C[C@@H](O)[C@]4(CC[C@@](C)([C@H]5CC[C@](O)(CC)[C@H](C)O5)O4)O3)[C@H](C)C[C@@H]2C)O1.[Br-] | > 256 | 32.5 | 3 | 29.4 | 0.4 | 39.5 | 1.2 | 90 | 12.94 | 860 | 2 | 33.55 | 52.57 | 70.7 | inactive | 14.59 | 700 | 590 | 0.8 | 1.1 | MIC [21]: 2 µg/mL; MIC [22]: 2 µg/mL; selectivity ratio [23]: 0.7; Activity [24]: 19.91%; Activity [25]: Active; IC50 [26]: 1450 nM; MIC [27]: 2 µg/mL; Activity [28]: 70%; selectivity ratio [29]: 0.5; Activity [30]: 5.15%; selectivity ratio [31]: 1.4; Activity [32]: Active; selectivity ratio [33]: 0.8; IC50 [34]: 900 nM; MIC [35]: 2 µg/mL; Activity [36]: 90% |
